Read-outs that look alike come from different tables or passages of the source.
Legend:
C. elegans young adults = assay: C. elegans young adult motility dose-response assay; assay type: cell-based, Caenorhabditis elegans; details: for IC50: read-out: Worm motility IC50 ± SD, C. elegans young adults
Experimental: The eggs were then washed five times with 15 mL of sterile M9 buffer (centrifugation at 500×g, 2 min). […] were collected from plates and washed twice with sterile M9 buffer by centrifugation (500×g, 2 min) to remove E. coli OP50, and then resuspended to a concentration of 100 larvae per 50 μL in sterile (autoclaved) LB*. The dose-response assay for C. elegans followed a well-established protocol ([Taki et al., 2021a]) and was employed to evaluate the potency of hit compounds against this nematode. […] Two compounds, monepantel (ZolvixTM; Elanco, Australia) and moxidectin ([…], France) were used as positive controls and prepared in the same manner as the test compounds. […] The test compounds and positive control compounds were arrayed in triplicate across individual flat-bottom 96-well microplates (cat. no. 3596; Corning, Corning, NY, USA), with six wells on each plate containing the negative control. Added to each well were 100 C. elegans in 50 μL of LB* to give a final volume of 100 μL. Plates were then placed in an incubator ([…], model no. IMP180, Thermo Fisher Scientific, USA) at 20 °C for 40 h. […] Over 15 min, disturbance of an infrared beam in individual wells was recorded as an 'activity count'. Raw 'activity counts' for each well were normalised to the negative controls. The compound concentrations were log10-transformed and fitted using a variable slope four-parameter equation, using the ordinary least squares fit model, employing the program Prism (v.9.1.0 GraphPad Software, San Diego, CA, USA).

H. contortus xL3s = assay: H. contortus xL3 motility dose-response assay; assay type: cell-based, Haemonchus contortus; details: for IC50: read-out: Worm motility IC50 ± SD, H. contortus xL3s; for fold increased activity compared to UMW-9729, H. contortus larvae: ratio of xL3 motility IC50 to parent UMW-9729
Experimental: Immediately prior to use in assays, H. contortus L3s were exsheathed via exposure to 0.15 % (v/v) sodium hypochlorite for 20 min at 38 °C ([Preston et al., 2015]), achieving an exsheathment rate of 90 %. The larvae were then immediately washed five times with 50 mL of sterile physiological saline (pH 7.0) by centrifugation at 2000×g (5 min) and resuspended (at a concentration of 300 xL3s per 50 μL) in sterile (autoclaved) lysogeny broth (LB; cf. [Bertani, 1951]; [Taki et al., 2021b]), supplemented with final concentrations of 100 IU/mL of penicillin, 100 μg/mL of streptomycin and 0.25 μg/mL of amphotericin B (Fungizone®, cat. No. 15240-062, Gibco, Thermo Fisher Scientific, Waltham, MA, USA); this supplemented LB was designated LB*.
The dose-response assay for H. contortus followed a well-established protocol ([Taki et al., 2021b]); it was employed to evaluate the potency of hit compounds against this nematode. Test compounds were assessed individually for an effect on the motility of xL3s (10-point, 2-fold serial dilution in LB*, 40 μM–[…]). […] A solution of LB* was used as a negative control. The test compounds and positive control compounds (monepantel and moxidectin) were arrayed in triplicate across individual flat-bottom 96-well microplates, with six wells on each plate containing the negative control. Added to each well were 300 xL3s of H. contortus in 50 μL of LB* to give a final volume of 100 μL. Plates were then placed in a CO2 incubator (10 % (v/v) CO2, 38 °C, >90 % humidity; Forma, model no. 311, Thermo Fisher Scientific, USA). […] Over a period of 15 min, disturbance of an infrared beam in individual wells was recorded as an ‘activity count’. Raw ‘activity counts’ for individual wells were normalised to the negative-controls. The compound concentrations were log10-transformed and fitted using a variable slope four-parameter equation, using the ordinary least squares fit model, employing Prism (v.9.1.0 GraphPad Software, San Diego, CA, USA). Larval development was established at 168 h of incubation with compound, as described previously ([Preston et al., 2015]). The phenotypes of larvae were examined using a microscope ([Preston et al., 2015]) and recorded.

[1] = tested on: adult females of Haemonchus contortus; assay: Motility of adult female H. contortus in vitro; assay type: cell-based; details: 40 μM
Experimental: Adult H. contortus were collected from the abomasa of sheep infected for 10 weeks, washed extensively with phosphate-buffered saline (PBS, pH 7.4) and subsequently in RPMI 1640 media supplemented with final concentrations of 2 mM L-glutamine, 100 IU/mL of penicillin, 100 μg/mL of streptomycin and 0.25 μg/mL of amphotericin B (Thermo Fisher Scientific, Scoresby, VIC, Australia; this supplemented RPMI was designated RPMI*). Female and male worms were collected and separated immediately prior to compound testing.
The activity of UMW-9729 and six derivatives (12, 14, 15, 16, 18 and 25) was assessed on adult female specimens of H. contortus in an established assay ([Taki et al., 2020]). The compound was added in triplicate to the wells of a 24-well plate (cat. no. 3524; Corning, USA) at a concentration of 40 μM in 500 μL of RPMI* (RPMI supplemented with final concentrations of 2 mM L-glutamine, 100 IU/mL of penicillin, 100 μg/mL of streptomycin and 0.25 μg/mL of amphotericin B; Thermo Fisher Scientific, Scoresby, VIC, Australia). Two positive-control compounds, monepantel and moxidectin, and a negative control containing 1 % (v/v) DMSO only, were included in triplicates on the same plate. Three adult females were added to each of the triplicate wells containing either the test compound or the controls and placed in a CO2 incubator (10 % (v/v) CO2, 40 °C, >90 % relative humidity) for 1 day. A video recording (30 s) of each well was taken at 3 h, 6 h, 12 h and 24 h during the total incubation period to assess the reduction in worm motility, which was scored as 3 (“good”), 2 (“low”), 1 (“very low”) or 0 (“no movement”; cf. [Taki et al., 2020]). For each test or control compound, the motility scores for each of the triplicate wells were calculated, normalised with reference to the negative control (100 % motility) and recorded as a percentage.

[2] = Caenorhabditis elegans, 40 h, young adults, 40 h incubation, three independent assays in triplicate
[3] = Haemonchus contortus, 90 h, xL3s, 90 h incubation (table title), three independent assays in triplicate
[4] = xL3s, 90 h incubation (table title), three independent assays in triplicate
[5] = young adults, 40 h incubation, three independent assays in triplicate
[6] = 24 h of incubation, normalised to negative control

Row | Compound | IC50 (C. elegans young adults; [2]) | IC50 (H. contortus xL3s; [3]) | also measured
1 | FC(F)(F)Oc1cccc(C#Cc2ccc(-c3ccn[nH]3)cc2)c1 [Compound 13] | > 40 µM | > 40 µM | 
2 | COc1ccc(C#Cc2ccc(-c3ccn[nH]3)cc2)cc1 [Compound 19] | > 40 µM | > 40 µM | Worm motility IC50 ± SD, H. contortus xL3s (H. contortus xL3s; [4]): inactive
3 | N#Cc1ccc(C#Cc2ccc(-c3ccn[nH]3)cc2)cc1 [Compound 21] | > 40 µM | 6.7 ± 4.2 µM | 
4 | COc1ccccc1C#Cc1ccc(-c2ccn[nH]2)cc1 [Compound 6] | > 40 µM | > 40 µM | 
5 | Fc1cccc(C#Cc2ccc(-c3ccn[nH]3)cc2)c1 [Compound 14] | 9 µM | 5.2 ± 0.9 µM | IC50 (C. elegans young adults; [5]): 8 ± 1.8 µM; reduction of worm motility, adult females of H. contortus [1, 6]: 29%
6 | Cc1nc(-c2ccc(C#Cc3ccccc3)cc2)no1 [Compound 32] | 18 ± 11 µM | 5.1 ± 0.5 µM | 
7 | Cn1nccc1-c1ccc(C#Cc2ccccc2)cc1 [Compound 25] |  |  | Worm motility IC50 ± SD, C. elegans young adults (C. elegans young adults; [5]): inactive; IC50 (C. elegans young adults; [5]): > 40 µM; reduction of worm motility, adult females of H. contortus ([1]; 3 h time point): did not display a reduction in motility; reduction of worm motility, adult females of H. contortus ([1]; 6 h time point): did not display a reduction in motility; reduction of worm motility, adult females of H. contortus ([1]; 12 h time point): did not display a reduction in motility; fold increased activity compared to UMW-9729, H. contortus larvae (H. contortus xL3s): 3 fold; Maximum motility inhibition (MMI), H. contortus xL3s (H. contortus xL3s; xL3s, 90 h incubation (table title)): 73%; IC50 (H. contortus xL3s; [4]): 1.9 ± 0.14 µM
8 | C(#Cc1ccc(-c2ccn[nH]2)cn1)c1ccccc1 [Compound 24] | > 40 µM | 24 ± 8.5 µM | Worm motility IC50 ± SD, C. elegans young adults (C. elegans young adults; [5]): loss in activity
9 | C[C@](C#N)(COc1cc(C#N)ccc1C(F)(F)F)NC(=O)c1ccc(SC(F)(F)F)cc1 [Monepantel, monepantel, reference compound] | 0.03 ± 0.01 µM | 0.6 ± 0.2 µM | 
10 | FC(F)(F)c1cccc(C#Cc2ccc(-c3ccn[nH]3)cc2)c1 [Compound 12] | 12 ± 7 µM | 8.2 ± 1.9 µM | reduction of worm motility, adult females of H. contortus [1, 6]: 29%
11 | C(#Cc1ccc(-c2ccn[nH]2)cc1)c1ccncc1 [Compound 22] | > 40 µM | > 40 µM | Worm motility IC50 ± SD, H. contortus xL3s (H. contortus xL3s; [4]): inactive
12 | Clc1ccc(C#Cc2ccc(-c3ccn[nH]3)cc2)cc1 [Compound 20] | > 40 µM | 3.7 ± 1.1 µM | 
13 | CO/N=C1\C[C@]2(C[C@@H]3C[C@@H](C/C=C(\C)C[C@@H](C)/C=C/C=C4\CO[C@@H]5[C@H](O)C(C)=C[C@@H](C(=O)O3)[C@]45O)O2)O[C@H](/C(C)=C/C(C)C)[C@H]1C [Moxidectin, moxidectin, reference compound] | 0.003 µM | 18 ± 9.1 µM | 
14 | Fc1ccccc1C#Cc1ccc(-c2ccn[nH]2)cc1 [Compound 8] | 3.7 ± 1.9 µM | 12 µM | IC50 (H. contortus xL3s; [4]): 13 ± 4.5 µM
15 | FC(F)(F)c1ccccc1C#Cc1ccc(-c2ccn[nH]2)cc1 [Compound 7] | > 40 µM | > 40 µM | 
16 | Cc1cccc(C#Cc2ccc(-c3ccn[nH]3)cc2)c1 [Compound 11] | > 40 µM | 13 ± 5.7 µM | Worm motility IC50 ± SD, C. elegans young adults (C. elegans young adults; [5]): lost activity
17 | C(#Cc1ccccn1)c1ccc(-c2ccn[nH]2)cc1 [Compound 10] | > 40 µM | 8.7 ± 2.5 µM | Worm motility IC50 ± SD, C. elegans young adults (C. elegans young adults; [5]): loss of compound activity
18 | Clc1cccc(C#Cc2ccc(-c3ccn[nH]3)cc2)c1 [Compound 15] | 8.2 ± 7.8 µM | > 40 µM | fold increased activity compared to UMW-9729, C. elegans (C. elegans young adults; ratio of motility IC50 to parent UMW-9729): ~2 fold; reduction of worm motility, adult females of H. contortus [1, 6]: 23%; Worm motility IC50 ± SD, H. contortus xL3s (H. contortus xL3s; [4]): loss of activity
19 | Clc1ccccc1C#Cc1ccc(-c2ccn[nH]2)cc1 [Compound 9] | > 40 µM | 4.8 ± 0.7 µM | 
20 | C#Cc1ccc(-c2ccn[nH]2)cc1 [Compound 27, 5-(4-ethynylphenyl)-1H-pyrazole] | > 40 µM | > 40 µM | Worm motility IC50 ± SD, H. contortus xL3s (H. contortus xL3s; [4]): complete loss of activity
21 | C(#Cc1cccc(-c2ccn[nH]2)c1)c1ccccc1 [Compound 26, 5-(3-(phenylethynyl)phenyl)-1H-pyrazole] | > 40 µM | > 40 µM | Worm motility IC50 ± SD, H. contortus xL3s (H. contortus xL3s; [4]): complete loss of activity
22 | C[Si](C)(C)C#Cc1ccc(-c2ccn[nH]2)cc1 [Compound 23] |  |  | IC50 (C. elegans young adults; Caenorhabditis elegans, 40 h): > 40 µM; IC50 (H. contortus xL3s; Haemonchus contortus, 90 h): > 40 µM; Worm motility IC50 ± SD, H. contortus xL3s (H. contortus xL3s; [4]): complete loss of activity
23 | Cc1ccc(C#Cc2ccc(-c3ccn[nH]3)cc2)cc1 [Compound 18] | > 40 µM | 2 ± 0.1 µM | Worm motility IC50 ± SD, C. elegans young adults (C. elegans young adults; [5]): inactive; reduction of worm motility, adult females of H. contortus [1, 6]: 15%; fold increased activity compared to UMW-9729, H. contortus larvae (H. contortus xL3s): 3 fold
24 | C(#Cc1cccnc1)c1ccc(-c2ccn[nH]2)cc1 [Compound 16] | > 40 µM | 6.8 ± 0.1 µM | Worm motility IC50 ± SD, C. elegans young adults (C. elegans young adults; [5]): loss of activity; reduction of worm motility, adult females of H. contortus [1, 6]: 15%; Worm motility IC50 ± SD, H. contortus xL3s (H. contortus xL3s; [4]): equipotent
25 | Oc1cccc(C#Cc2ccc(-c3ccn[nH]3)cc2)c1 [Compound 17] | 25 ± 7 µM | 29 ± 12 µM | 
26 | c1ccc(CCc2ccc(-c3ccn[nH]3)cc2)cc1 [Compound 28] | > 40 µM | 16 ± 4.9 µM | 
